Read-outs that look alike come from different tables or passages of the source.
Tests used:
Assay type in all cases: cell-based
C8161 = test: Apoptosis assay (Cellomics, nucleus condensation); settings: Homo sapiens, Table III, read-out: Apoptosis induction in C8161
Excerpt: (§1) The Cellomics BioApplication (Thermo Fischer Cellomics Products, Pittsburgh, Pa.) is an automated image analysis algorithm that provides detailed analysis of phenotypes related to apoptosis. As one of the most prominent characteristics of apoptotics cell a nucleus condensation takes place. This can be measured fluorescence signal intensity using a CCD camera on fully automated microscope system. The Cellomics system is able to quantify the fluorescence intensity per single nucleus and calculates the variation of signal intensity in each cell population. […] Additionally the number of detected cell decreases normally in apoptotic cell populations. In detail 5000 cell per 96 well were labeled with DNA intercalating dye (Hoechst 33342, Sigma, Steinheim, Germany) to visualize the nucleus in a fluorescence microscope under live conditions. The apoptosis assay was performed 24 h and 48 h after addition of compound at concentrations 12.5 μM, 6.25 μM, 3.125 μM, 1.56 μM, 0.78 μM, 0.39 μM as well as DMSO control for 48 h.

Hs578T [1] = test: Apoptosis assay (Cellomics, nucleus condensation); settings: Homo sapiens, Hs-578T, Table III, read-out: Apoptosis induction in Hs578T
Excerpt: as §1

SF126 = test: Apoptosis assay (Cellomics, nucleus condensation); settings: Homo sapiens, SF-126, Table III, read-out: Apoptosis induction in SF126
Excerpt: as §1

SF763 = test: Apoptosis assay (Cellomics, nucleus condensation); settings: Table III, read-out: Apoptosis induction in SF763
Excerpt: as §1

U118 = test: Apoptosis assay (Cellomics, nucleus condensation); settings: Table III, read-out: Apoptosis induction in U118
Excerpt: as §1

U138 = test: Apoptosis assay (Cellomics, nucleus condensation); settings: Table III, read-out: Apoptosis induction in U138
Excerpt: as §1

indicated cell line = test: Wound healing migration assay (Table IV); settings: compounds at 12.5, 6.25, 3.125 μM, 48 h-72 h
Method: This method mimics cell migration during wound healing in vivo. The basic steps involve creating a “wound” in a cell monolayer, capturing the images at the beginning and at regular intervals during cell migration to close the wound, and comparing the images to quantify the migration rate of the cells. In detail, 150000 cell/24 well have been seeded and allowed to form a monolayer overnight. Subsequently a “wound” or “scratch” has been performed with a 1000 μl pipette tip. The STDV of wound size is normally below 10% at time point t0. The assay was stopped by fixation with 0.05% Crystal violet/20% methanol when control scratches were closed. The assay was terminated between 48 h and 72 h depending on the migration potential of the indicated cell line. The “wounds” were visualized with a Zeiss Axiovert S100 microscope (Carl Zeiss UK, Welwyn Garden City, UK). The tested compounds were used at 12.5 μM, 6.25, 3.125 μM and DMSO control. IC50 values have been calculated as 50% wound size in between t0 and t48 or t72.

Hs578T [2] = test: Matrigel outgrowth assay/branching assay; settings: Homo sapiens, Hs-578T; HS578T cell line; Table Ib; read-out: Total branching inhibition in Matrigel HS578T
Procedure, shortened: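 Step one: Matrigel (3 mg/ml) is set for 1 h at 37° C. Step two: 5000 cells per well go on in medium with compound (0.78–3.125 μM) or DMSO. Step three: images at 48, 72 and 96 h are scored for complete loss of branching.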

tumor cell = test: Matrigel outgrowth assay/branching assay (Table Va)
Method: The Matrigel outgrowth assay is based on the ability of tumor cell to penetrate a solid gel of extracellular matrix proteins mimicking the metastasis formation in vivo. While cells with low invasive potential appear as roundish cell or cell cluster, cells with high invasive potential penetrate the Matrigel and form polymorphic structures. In detail 65 μl of Matrigel matrix (Matrigel™ Matrix, BD Biosciences, Bedford, Mass., USA) with a concentration of 3 mg/ml have been polymerized in 96 well plates for 1 h at 37° C. Subsequently 5000 cell/well were seeded into each well containing cell culture medium and indicated compound with concentrations of 3.125 μM, 1.56 μM and 0.78 μM as well as DMSO control. After 48 h, 72 h and 96 h images of cell were taken on an inverted microscope using a 5× objective (Zeiss Axiovert S100 microscope Carl Zeiss UK, Welwyn Garden City, UK). Only compound concentrations were total branching inhibition was evident were accounted as positive. Method was used as previously described, with some modifications (Thompson E W, et al. Association of increased basement membrane invasiveness with absence of estrogen receptor and expression of vimentin in human breast cancer cell lines. J Cell Physiol 1992; 150:534-44).

cells = test: Boyden chamber migration assay (Table VI); settings: Homo sapiens, Hs-578T, 16 h, Hs578T cells; 16 h migration
Method: The Boyden chamber assay is based on a chamber of two medium-filled compartments separated by a microporous membrane of 8 μM (Cell culture insert 8.0 μM pore size, BD Biosciences, Bedford, Mass.). The boyden chamber migration assays were carried out according to the supplier's instructions. In general, 20000 cells are placed in the upper compartment with medium containing 0% FCS plus 0.1% BSA and are allowed to migrate 16 h through the pores of the membrane into the lower compartment, which is filled with cell culture medium containing 10% FCS as chemotactic agents. The cells remaining in the insert were removed with a cotton swab, and the cells on the bottom of the filter were fixed and counted. (Zhang Y X, et al. AXL is a potential target for therapeutic intervention in breast cancer progression. Cancer Res. 2008; 68:1905-15).

viable cells in culture = test: Cell viability assay at 10 μM (CellTiter-Glo, Table VII); settings: compound 10 μM, 72 h;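 further: graded A 0-20%; B 21-40%; C 41-60%; D over 60% viable cells relative to DMSO control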
Procedure, shortened: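 Viable cell number was measured with the CellTiter-Glo Luminescent Cell Viability Assay (Promega), following the manufacturer's protocol, which quantifies ATP as a marker of metabolically active cells. In 96-well plates, 1000 cells/well in 100 μl medium were exposed to compound at 10 μM, or to DMSO control, for 72 h. Values were calculated relative to DMSO-control ATP.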

[3] = Homo sapiens, C8161 cells, read-out: IC50 Wound healing Assay C8161
[4] = SF763 cells, read-out: IC50 Wound healing Assay SF763
[5] = Homo sapiens, C8161 cells, read-out: Total branching inhibition in Matrigel C8161
[6] = Homo sapiens, Hs-578T, Hs578T cells, read-out: Total branching inhibition in Matrigel Hs578T
[7] = U118 cells, read-out: Total branching inhibition in Matrigel U118
[8] = U138 cells, read-out: Total branching inhibition in Matrigel U138
[9] = Homo sapiens, HCT-116, HCT116 def, read-out: percentage (%) of viable cells HCT 116def
[10] = Homo sapiens, HCT-116, HCT116 wt, read-out: percentage (%) of viable cells HCT 116wt
[11] = Homo sapiens, HT-29, HT29, read-out: percentage (%) of viable cells HT29
[12] = Homo sapiens, NCI-H358, H358, read-out: percentage (%) of viable cells H358
[13] = Homo sapiens, NCI-H1650, H1650, read-out: percentage (%) of viable cells H1650
[14] = Homo sapiens, NCI-H1666, H1666, read-out: percentage (%) of viable cells H1666
[15] = Homo sapiens, NCI-H1975, H1975, read-out: percentage (%) of viable cells H1975
[16] = Homo sapiens, NCI-H1993, H1993, read-out: percentage (%) of viable cells H1993
[17] = Homo sapiens, A549, read-out: percentage (%) of viable cells A549
[18] = Homo sapiens, HCC827, read-out: percentage (%) of viable cells HCC827
[19] = Homo sapiens, SW480, read-out: percentage (%) of viable cells SW480
[20] = RKO, read-out: percentage (%) of viable cells RKO

SMILES | IC50 (C8161) | IC50 (Hs578T [1]) | IC50 (SF126) | IC50 (SF763) | IC50 (U118) | IC50 (U138) | IC50 (indicated cell line; [3]) | IC50 (indicated cell line; [4]) | IC50 (Hs578T [2]) | IC50 (tumor cell; [5]) | IC50 (tumor cell; [6]) | IC50 (tumor cell; [7]) | IC50 (tumor cell; [8]) | IC50 (cells) | viability at 10 µM (viable cells in culture; [9]) | viability at 10 µM (viable cells in culture; [10]) | viability at 10 µM (viable cells in culture; [11]) | viability at 10 µM (viable cells in culture; [12]) | viability at 10 µM (viable cells in culture; [13]) | viability at 10 µM (viable cells in culture; [14]) | also measured
O=S(=O)(Nc1ccc(Oc2ccnc3cc(OCCCCN4CCOCC4)ccc23)c(F)c1)c1cc(F)ccc1F [Example 84, 2,5-Difluoro-N-{3-fluoro-4-[7-(4-morpholin-4-yl-butoxy)-quinolin-4-yloxy]-phenyl}-benzenesulfonamide] | ≤ 12.5 µM | ≤ 12.5 µM | ≤ 12.5 µM | ≤ 12.5 µM | ≤ 12.5 µM | ≤ 12.5 µM | ≤ 12.5 µM | 12.5 to 50 µM | ≤ 10 µM | ≤ 5 µM | ≤ 5 µM | ≤ 5 µM | ≤ 5 µM | ≤ 5 µM | 0 to 20% | 0 to 20% | 0 to 20% | 0 to 20% | 0 to 20% | 41 to 60% | viability at 10 µM (viable cells in culture; [15]): 21 to 40%; viability at 10 µM (viable cells in culture; [16]): 0 to 20%; viability at 10 µM (viable cells in culture; [17]): > 60%; viability at 10 µM (viable cells in culture; [18]): > 60%; viability at 10 µM (viable cells in culture; [19]): 0 to 20%; viability at 10 µM (viable cells in culture; [20]): 0 to 20%
CN1CCN(CCCOc2ccc3nccc(Oc4ccc(NS(=O)(=O)c5ccccc5C(F)(F)F)cc4F)c3c2)CC1 [Example 85, N-(3-Fluoro-4-{6-[3-(4-methyl-piperazin-1-yl)-propoxy]-quinolin-4-yloxy}-phenyl)-2-trifluoromethyl-benzenesulfonamide] | ≤ 12.5 µM | ≤ 12.5 µM | ≤ 12.5 µM | ≤ 12.5 µM | 12.5 to 50 µM | ≤ 12.5 µM | ≤ 12.5 µM | 12.5 to 50 µM | ≤ 10 µM | ≤ 5 µM | ≤ 5 µM | ≤ 5 µM | 5 to 50 µM | ≤ 5 µM | 21 to 40% | 0 to 20% | 21 to 40% | 21 to 40% | 21 to 40% | 41 to 60% | viability at 10 µM (viable cells in culture; [15]): 21 to 40%; viability at 10 µM (viable cells in culture; [16]): 0 to 20%; viability at 10 µM (viable cells in culture; [17]): 41 to 60%; viability at 10 µM (viable cells in culture; [18]): 0 to 20%; viability at 10 µM (viable cells in culture; [19]): 0 to 20%; viability at 10 µM (viable cells in culture; [20]): 0 to 20%
COc1cc2nccc(Oc3ccc(NS(=O)(=O)c4ccccc4C(F)(F)F)cc3F)c2cc1OCCCN1CCN(C)CC1 [Example 86, N-(3-Fluoro-4-{7-methoxy-6-[3-(4-methyl-piperazin-1-yl)-propoxy]-quinolin-4-yloxy}-phenyl)-2-trifluoromethyl-benzenesulfonamide] | ≤ 12.5 µM | ≤ 12.5 µM | ≤ 12.5 µM | ≤ 12.5 µM | ≤ 12.5 µM | ≤ 12.5 µM | 12.5 to 50 µM | 12.5 to 50 µM | ≤ 10 µM | ≤ 5 µM | ≤ 5 µM | ≤ 5 µM | 5 to 50 µM | ≤ 5 µM | 21 to 40% | 21 to 40% | 0 to 20% | 0 to 20% | 21 to 40% | 41 to 60% | viability at 10 µM (viable cells in culture; [15]): 21 to 40%; viability at 10 µM (viable cells in culture; [16]): 0 to 20%; viability at 10 µM (viable cells in culture; [17]): > 60%; viability at 10 µM (viable cells in culture; [18]): 41 to 60%; viability at 10 µM (viable cells in culture; [19]): 21 to 40%; viability at 10 µM (viable cells in culture; [20]): 21 to 40%
